Laboratory results from patent US20250388565A1, “ESTROGEN RECEPTOR ALPHA DEGRADERS AND METHODS OF USE THEREOF” (Relay Therapeutics, Inc., priority 2022, published 2025).

The molecules below were run against T1, ERα protein (HiBiT-tagged) in ESR1_HiBiT KI MCF7 cells (Homo sapiens, UniProt P03372) (assay: Nano Glo HiBiT Lytic Degradation Assay). Conditions: 6 hours with compound, 14-point dose response 1:3, bell-shape curve fit, half-maximal effect of first Hill model, read-out: MCF7 ESR1 HiBiT - (DC50).
T1 sequence (P03372 1-595): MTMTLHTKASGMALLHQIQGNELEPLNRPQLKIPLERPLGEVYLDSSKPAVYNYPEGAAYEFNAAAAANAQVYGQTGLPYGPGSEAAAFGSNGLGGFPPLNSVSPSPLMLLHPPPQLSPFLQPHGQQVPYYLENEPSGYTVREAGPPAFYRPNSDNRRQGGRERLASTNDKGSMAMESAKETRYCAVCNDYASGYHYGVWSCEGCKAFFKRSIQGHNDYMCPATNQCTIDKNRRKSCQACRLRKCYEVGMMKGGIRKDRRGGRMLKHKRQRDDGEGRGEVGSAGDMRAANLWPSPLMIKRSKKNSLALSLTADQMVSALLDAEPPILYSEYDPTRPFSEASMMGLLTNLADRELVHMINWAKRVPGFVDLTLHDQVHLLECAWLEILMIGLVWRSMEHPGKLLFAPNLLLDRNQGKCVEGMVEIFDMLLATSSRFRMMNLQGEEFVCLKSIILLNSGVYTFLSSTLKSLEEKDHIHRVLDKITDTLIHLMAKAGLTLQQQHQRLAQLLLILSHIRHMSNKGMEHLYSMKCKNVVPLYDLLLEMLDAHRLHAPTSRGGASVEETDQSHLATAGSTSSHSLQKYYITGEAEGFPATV
Format: cell-based
In short: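 Lytic Nano-Glo HiBiT luminescence quantified ERα remaining after a 6 h, 37° C compound exposure of MCF7 cells carrying endogenous HiBiT-tagged ESR1. Dosing used 14 threefold dilutions from a 10 mM DMSO stock (0.1% DMSO final), run in duplicate. Signals were corrected for cell-free background and expressed relative to DMSO, and DC50 came from a bell-shaped curve fit (first Hill model half-maximum).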

| Structure (SMILES) | DC50 |
| --- | --- |
| C[C@H]1Cc2cc(O)ccc2[C@H](c2ccc(N3CCC(CN4CCN(c5ccc6c(c5)CN([C@H]5CCC(=O)NC5=O)C6=O)CC4)CC3)cc2)[C@@H]1c1ccccc1 [Compound I-334, (S)-3-(5-(4-((1-(4-((1S,2R,3S)-6-hydroxy-3-methyl-2-phenyl-1,2,3,4-tetrahydronaphthalen-1-yl)phenyl)piperidin-4-yl)methyl)piperazin-1-yl)-1-oxoisoindolin-2-yl)piperidine-2,6-dione] | 28 nM |
| [2H]c1c([2H])c([2H])c([C@H]2CC(F)(F)c3cc(O)ccc3[C@H]2c2ccc(N3CCC(CN4CCN(c5ccc6c(c5)CN([C@H]5CCC(=O)NC5=O)C6=O)CC4)CC3)cc2)c([2H])c1[2H] [Compound I-335, (S)-3-(5-(4-((1-(4-((1R,2S)-4,4-difluoro-6-hydroxy-2-(phenyl-d5)-1,2,3,4-tetrahydronaphthalen-1-yl)phenyl)piperidin-4-yl)methyl)piperazin-1-yl)-1-oxoisoindolin-2-yl)piperidine-2,6-dione] | 0.36 nM |
| [2H]c1c([2H])c([2H])c([C@@H]2CC(F)(F)c3cc(O)ccc3[C@@H]2c2ccc(N3CCC(CN4CCN(c5ccc6c(c5)CN([C@H]5CCC(=O)NC5=O)C6=O)CC4)CC3)cc2)c([2H])c1[2H] [Compound I-336, (S)-3-(5-(4-((1-(4-((1S,2R)-4,4-difluoro-6-hydroxy-2-(phenyl-d5)-1,2,3,4-tetrahydronaphthalen-1-yl)phenyl)piperidin-4-yl)methyl)piperazin-1-yl)-1-oxoisoindolin-2-yl)piperidine-2,6-dione] | 15 nM |
| O=C1CC[C@H](N2Cc3cc(N4CCN(CC5CCN(c6ccc([C@H]7c8ccc(O)cc8C(F)(F)C[C@H]7c7ccccc7)nc6)CC5)CC4)ccc3C2=O)C(=O)N1 [Compound I-337, (S)-3-(5-(4-((1-(6-((1R,2R)-4,4-difluoro-6-hydroxy-2-phenyl-1,2,3,4-tetrahydronaphthalen-1-yl)pyridin-3-yl)piperidin-4-yl)methyl)piperazin-1-yl)-1-oxoisoindolin-2-yl)piperidine-2,6-dione] | ≥ 10000 nM |
| O=C1CC[C@H](N2Cc3cc(N4CCN(CC5CCN(c6ccc([C@H]7c8ccc(O)cc8C(F)(F)C[C@H]7c7ccccc7)cn6)CC5)CC4)ccc3C2=O)C(=O)N1 [Compound I-338, (3S)-3-[5-[4-[[1-[5-[(1R,2R)-4,4-difluoro-6-hydroxy-2-phenyl-tetralin-1-yl]-2-pyridyl]-4-piperidyl]methyl]piperazin-1-yl]-1-oxo-isoindolin-2-yl]piperidine-2,6-dione] | 10 nM |
| [2H]c1cc2c(c([2H])c1O)C([2H])C[C@H](c1ccccc1)[C@@H]2c1ccc(N2CCC(CN3CCN(c4ccc5c(c4)CN([C@H]4CCC(=O)NC4=O)C5=O)CC3)CC2)cn1 (some centres unmarked) [Compound I-339] | 0.31 nM |
| C[C@]1(c2ccccc2)CCc2cc(O)ccc2[C@@H]1c1ccc(N2CCC(CN3CCN(c4ccc5c(c4)CN([C@H]4CCC(=O)NC4=O)C5=O)CC3)CC2)cc1 [Compound I-344, (S)-3-(5-(4-((1-(4-((1R,2S)-6-hydroxy-2-methyl-2-phenyl-1,2,3,4-tetrahydronaphthalen-1-yl)phenyl)piperidin-4-yl)methyl)piperazin-1-yl)-1-oxoisoindolin-2-yl)piperidine-2,6-dione] | 84 nM |
| O=C1CC[C@H](N2Cc3cc(N4CCN(CC5CCN(c6ccc([C@H]7c8ccc(O)cc8CO[C@H]7c7ccc(F)cc7)cc6)CC5)CC4)ccc3C2=O)C(=O)N1 [Compound I-346, (S)-3-(5-(4-((1-(4-((3R,4S)-3-(4-fluorophenyl)-7-hydroxyisochroman-4-yl)phenyl)piperidin-4-yl)methyl)piperazin-1-yl)-1-oxoisoindolin-2-yl)piperidine-2,6-dione] | ≥ 10000 nM |
| O=C1CC[C@H](N2Cc3cc(N4CCN(CC5CCN(c6ccc([C@@H]7c8ccc(O)cc8CO[C@@H]7c7ccccc7F)cc6)CC5)CC4)ccc3C2=O)C(=O)N1 [Compound I-347, (S)-3-(5-(4-((1-(4-((3S,4R)-3-(2-fluorophenyl)-7-hydroxyisochroman-4-yl)phenyl)piperidin-4-yl)methyl)piperazin-1-yl)-1-oxoisoindolin-2-yl)piperidine-2,6-dione] | 0.18 nM |
| O=C1CC[C@H](N2Cc3cc(N4CCN(CC5CCN(c6ccc([C@H]7c8ccc(O)cc8CO[C@H]7c7ccccc7F)cc6)CC5)CC4)ccc3C2=O)C(=O)N1 [Compound I-348, (S)-3-(5-(4-((1-(4-((3R,4S)-3-(2-fluorophenyl)-7-hydroxyisochroman-4-yl)phenyl)piperidin-4-yl)methyl)piperazin-1-yl)-1-oxoisoindolin-2-yl)piperidine-2,6-dione] | ≥ 10000 nM |
| O=C1CC[C@H](N2Cc3cc(N4CCN(CC5CCN(c6ccc([C@@H]7c8ccc(O)cc8CO[C@@H]7c7ccc(C(F)(F)F)cc7)cc6)CC5)CC4)ccc3C2=O)C(=O)N1 [Compound I-349] | 0.39 nM |
| O=C1CC[C@H](N2Cc3cc(N4CCN(CC5CCN(c6ccc([C@H]7c8ccc(O)cc8CO[C@H]7c7ccc(C(F)(F)F)cc7)cc6)CC5)CC4)ccc3C2=O)C(=O)N1 [Compound I-350, (S)-3-(5-(4-((1-(4-((3R,4S)-7-hydroxy-3-(4-(trifluoromethyl)phenyl)isochroman-4-yl)phenyl)piperidin-4-yl)methyl)piperazin-1-yl)-1-oxoisoindolin-2-yl)piperidine-2,6-dione] | 20 nM |
| CC(C)c1ccccc1[C@H]1OCc2cc(O)ccc2[C@H]1c1ccc(N2CCC(CN3CCN(c4ccc5c(c4)CN([C@H]4CCC(=O)NC4=O)C5=O)CC3)CC2)cc1 [Compound I-351, (S)-3-(5-(4-((1-(4-((3S,4R)-7-hydroxy-3-(2-isopropylphenyl)isochroman-4-yl)phenyl)piperidin-4-yl)methyl)piperazin-1-yl)-1-oxoisoindolin-2-yl)piperidine-2,6-dione] | 0.2 nM |
| CC(C)c1ccccc1[C@@H]1OCc2cc(O)ccc2[C@@H]1c1ccc(N2CCC(CN3CCN(c4ccc5c(c4)CN([C@H]4CCC(=O)NC4=O)C5=O)CC3)CC2)cc1 [Compound I-352, (S)-3-(5-(4-((1-(4-((3R,4S)-7-hydroxy-3-(2-isopropylphenyl)isochroman-4-yl)phenyl)piperidin-4-yl)methyl)piperazin-1-yl)-1-oxoisoindolin-2-yl)piperidine-2,6-dione] | 17 nM |
| Cc1ccc([C@H]2OCc3cc(O)ccc3[C@H]2c2ccc(N3CCC(CN4CCN(c5ccc6c(c5)CN([C@H]5CCC(=O)NC5=O)C6=O)CC4)CC3)cc2)cc1 [Compound I-354, (S)-3-(5-(4-((1-(4-((3S,4R)-7-hydroxy-3-(p-tolyl)isochroman-4-yl)phenyl)piperidin-4-yl)methyl)piperazin-1-yl)-1-oxoisoindolin-2-yl)piperidine-2,6-dione] | 0.3 nM |
| O=C1CC[C@H](N2Cc3cc(N4CCN(CC5CCN(c6ccc([C@H]7c8ccc(O)cc8CO[C@H]7c7cccc(OC(F)(F)F)c7)cc6)CC5)CC4)ccc3C2=O)C(=O)N1 [Compound I-361, (S)-3-(5-(4-((1-(4-((3R,4S)-7-hydroxy-3-(3-(trifluoromethoxy)phenyl)isochroman-4-yl)phenyl)piperidin-4-yl)methyl)piperazin-1-yl)-1-oxoisoindolin-2-yl)piperidine-2,6-dione] | ≥ 10000 nM |
| O=C1CC[C@H](N2Cc3cc(N4CCN(CC5CCN(c6ccc([C@@H]7c8ccc(O)cc8CO[C@@H]7c7cccc(OC(F)(F)F)c7)cc6)CC5)CC4)ccc3C2=O)C(=O)N1 [Compound I-362, (S)-3-(5-(4-((1-(4-((3S,4R)-7-hydroxy-3-(3-(trifluoromethoxy)phenyl)isochroman-4-yl)phenyl)piperidin-4-yl)methyl)piperazin-1-yl)-1-oxoisoindolin-2-yl)piperidine-2,6-dione] | 1 nM |
| O=C1CC[C@H](N2Cc3cc(N4CCN(CC5CCN(c6ccc([C@@H]7c8ccc(O)cc8CO[C@@H]7c7ccc8c(c7)CCC8)cc6)CC5)CC4)ccc3C2=O)C(=O)N1 [Compound I-365, (S)-3-(5-(4-((1-(4-((3S,4R)-3-(2,3-dihydro-1H-inden-5-yl)-7-hydroxyisochroman-4-yl)phenyl)piperidin-4-yl)methyl)piperazin-1-yl)-1-oxoisoindolin-2-yl)piperidine-2,6-dione] | 0.24 nM |
| O=C1CC[C@H](N2Cc3cc(N4CCN(CC5CCN(c6ccc([C@H]7c8ccc(O)cc8CO[C@H]7c7ccc8c(c7)CCC8)cc6)CC5)CC4)ccc3C2=O)C(=O)N1 [Compound I-366, (S)-3-(5-(4-((1-(4-((3R,4S)-3-(2,3-dihydro-1H-inden-5-yl)-7-hydroxyisochroman-4-yl)phenyl)piperidin-4-yl)methyl)piperazin-1-yl)-1-oxoisoindolin-2-yl)piperidine-2,6-dione] | ≥ 10000 nM |
| Cc1cc(F)c([C@H]2OCc3cc(O)ccc3[C@H]2c2ccc(N3CCC(CN4CCN(c5ccc6c(c5)CN([C@H]5CCC(=O)NC5=O)C6=O)CC4)CC3)cc2)cc1F [Compound I-369, (S)-3-(5-(4-((1-(4-((3S,4R)-3-(2,5-difluoro-4-methylphenyl)-7-hydroxyisochroman-4-yl)phenyl)piperidin-4-yl)methyl)piperazin-1-yl)-1-oxoisoindolin-2-yl)piperidine-2,6-dione] | 0.34 nM |
